Experimental data as given in patent US5382572A, “Alkyl and acyl substituted quinolines” (Schering Corporation, priority 1993, dated 1995).
Like-named read-outs stand apart in the source and are kept apart here.

What was measured:
HSV-2, strain MS = test: Prophylactic guinea pig model of HSV-2 infection; format: in vivo; details: test compounds 60 mg/kg s.c., T.I.D., 10 days, from 24 hours before infection; for MLS (Maximum Lesion Scores): scale of 1 (least) to 4 (severe), placebo 3; for NEUROLOGICAL DYSFUNCTIONS (percentage animals developing loss of bladder/hindlimb control): placebo 87
Procedure: The in vive assessment of anti-HSV efficacy was determined in the prophylactic guinea pig model of HSV infection described by Stansberry et al (1982). Dosing of guinea pigs comprised an initial treatment with test compound given 24 hours prior to virus infection and subsequent administration of the compound every eight hours (T.I.D.) for a total of 10 days. Test compounds were administered subcutaneously in 0.5% buffered methyl celluslose at a dose of 60 mg per kg body weight of the animal. Animals were monitored daily for the development of genital lesions and neurological symptomology, both of which were recorded and compared to the results obtained with parallel groups which received placebo or acyclovir treatment. Efficacy was evaluated for each compound by scoring the ability of the compound to ameliorate genital lesions produced by infection with HSV-2, strain MS, expressed as Maximum Lesion Scores (MLS) on a scale of 1 (least lesion) to 4 (severe lesions).

[1] = Compound toxicity assay: 3H-leucine incorporation (translational activity) in HeLa cells; format: cell-based; details: human, reduction of leucine incorporation, read-out: CYTOTOXICITY 3H-LEU ASSAY IC50
Procedure: HeLa cells were treated with inhibitory compound for 24 hours, after which levels of translational activity were assayed.
For assay of translational activity, HeLa cultures were grown to 80% confluency in 96 well microtiter plates, treated with appropriate concentrations of compound in 2% EMEM during an overnight incubation at 37° C., then rinsed with HBSS and overlaid with […] of 2% EMEM containing 8 μCi of tritiated leucine (141 Cμ/mMol, Amersham Corp., Arlington Heights Ill.). After a 1 hour incubation at 36.5° C., the cells were rinsed twice with phosphate buffered saline (PBS) and lysed in 400 μl/well of 1×PBS, 0.5% sodium dodecyl sulphate (SDS). After a 10 min incubation at 36.5° C., the contents of the well were transferred to a well in a Millititer HA microfiltration plate (Millipore Corp., Bedford, Mass.). The TCA-insoluble proteins were precipitated onto the filter disc by a 10-minute-fixation with 5% TCA, followed by filtration under vacuum and three 10-minute-rinses with 95% ethanol. The filters were dried at room temperature, cut from the millititer plate and transferred to scintillation vials. TCA precipitable counts were assayed in 5 ml of Scintisol (Isolab, Akron, Ohio). The inhibitory activity of a compound was plotted versus the concentration and an IC50 value (that concentration of the compound required to decrease cellular translational activity by 50%) was derived for each compound.
Cytotoxicity refers to the IC50 values in the 3H-leucine (3H-Leu) incorporation. The IC50 values in this test refer to the concentration of the compound in micrograms/milliliter which reduces leucine incorporation by 50%.

HSV-2 (strain MS) = test: HSV-β-gal assay: transient expression of beta-galactosidase in transfected HeLa cells superinfected with HSV-2; format: cell-based; details: Human alphaherpesvirus 2, HeLa, 24 h, inhibition of beta-galactosidase expression, MOI 5 pfu/cell, read-out: ANTI-HSV ACTIVITY HSV-β-GAL ASSAY IC50
Procedure: HeLa and Vero cell cultures were maintained in Eagle's Minimal Essential Medium (EMEM) which was supplemented with glutamine, penicillin, streptomycin and 10% fetal calf serum (10% EMEM). Stock cultures of HSV-2 (strain MS available from ATCC VR-540) were grown in and harvested from Vero cells. Viral stocks were titered in Vero cells according to established procedures.
Plasmid pON 245^ori- contains the promoter of the HSV-1 thymidine kinase (tk) gene located immediately 5' of the E. coli lac Z gene. In this arrangement, the tk promoter controls transcription from the bacterial gene in transient expression assays. Additionally, an SV40 polyadenylation signal is present at the 3'-end of the lac Z gene to allow for the efficient translation of the mRNA in eucaryotic cells. The expression of beta-galactosidase in a transient assay using pON 245^ori- is dependent upon superinfection of the transfected cells with HSV. […] For example, see European Patent Application No. 8302149.5 filed Mar. 11, 1988 and published Sep. 14th 1988 as 282,330, the disclosure of which is incorporated herein by reference thereto.
HeLa cells were seeded into 96 well microtiter plates and allowed to grow to 80% confluency (approximately 35000 cells/well). One half microgram of plasmid pON 245^ori- DNA was introduced into the cells of each well by the […] precipitation technique (Grahman and Van der Eb, 1973). Four to six hours later, the cells were rinsed with Hank's Balanced Salt Solution (HBSS), overlaid with 10% EMEM and incubated at 37° C. At 24 hour post-transfection, cells were rinsed, overlaid with 10% EMEM again and re-incubated at 37° C. At 48 hours. post-transfection, cells were rinsed and overlaid with either EMEM containing 2% fetal calf serum (2% EMEM), 2% EM EM containing HSV-2 (strain MS, Multiplicity of Infection [moil =5 pfu/cell) or 2% EMEM containing HSV-2 and the appropriate concentration of the compound to be tested. Twenty-four hours later, the cells were harvested and assayed for beta-galactosidase activity as described below.
(§1) All determinations of beta-galactosidase activity were performed in 96 well microtiter plates. The intracellular level of beta-galactosidase activity in each well was determined from cell lysates of the monolayer cultures. Aliquots were assayed by incubation in the presence of beta-galactosiclasesubstrate, 4-methyl-umbelliferyl-β-D-galactoside (MUG, 125 μg/ml, Sigma), for 2 hour. The generation of fluorescent product was quantified on a Microfluor microfluorimeter (Dynatech) after addition of 0.1M glycine, pH 10.3 (Spaete and Mocarski, 1985). The inhibitory activity of a compound was plotted versus the concentration and an IC50 value (the concentration of compound required to reduce beta-galactosidase expression by 50%) was obtained for each compound tested.
Anti-HSV activity refers to the IC50 values in the HSV-β-gal assay which measures anti-viral activity in terms of inhibition of beta-galactosidase expression. The IC50 values refer to the concentration of the compound in micrograms/milliliter needed to reduce beta-galactosidase expression by 50%.

[2] = CMV toxicity assay: tritiated leucine (3H-Leu) assay in HFF cells; format: cell-based; details: HFF cells (human foreskin fibroblast); read-out: CYTOTOXICITY 3H-LEU ASSAY IC50
CMV (strain Towne) = test: CMV-β-Gal assay: beta-galactosidase transient expression assay with CMV; format: cell-based; details: Human betaherpesvirus 5, read-out: ANTI-CMV ACTIVITY CMV-β-Gal ASSAY IC50, CMV strain Towne
Procedure: as §1
Human foreskin fibroblast (HHF) cell cultures were grown in 10% EMEM. CMV (strain Towne received from Stanford University) was grown and titered in HHF cells. Plasmids pON 249 and pON 241 Δ NH3, containing CMV promoter genes, were used in the β-galactosidase transient expression assay as shown above.

[3] = system: antiviral activity of lidocaine or lidocaine hydrochloride; details: added to lidocaine or lidocaine hydrochloride; Haines et al.; cited from earlier work
herpes virus infections = details: mammals; Haines et al.; cited from earlier work
HSV-2 = details: cell culture; Haines et al., U.S. Pat. No. 4,757,088; cited from earlier work
[4] = system: HSV oral and genital lesions; details: humans; Haines et al.; cited from earlier work
HSV-1 = details: cell culture; Haines et al., U.S. Pat. No. 4,757,088; cited from earlier work

Structure (SMILES)	CC50 at 24 h ([1]; first value) [µg/mL]	IC50 (HSV-2 (strain MS); first value) [µg/mL]	CC50 at 24 h ([1]; *Repeat) [µg/mL]	IC50 (HSV-2 (strain MS); *Repeat) [µg/mL]	further results
Nc1nc2c(ncn2COCCO)c(=O)[nH]1 [Acyclovir, 9-[(2-hydroxyethoxy)methyl]guanine, reference compound]	–	–	–	–	MLS (Maximum Lesion Scores) (HSV-2, strain MS): 1.5; NEUROLOGICAL DYSFUNCTIONS (percentage animals developing loss of bladder/hindlimb control) (HSV-2, strain MS): 50%
CCCCCCn1c(=O)c(C(OC(C)=O)OC(C)=O)c(OC)c2ccccc21 [Formula 1.1]	6	1.4	–	–	–
CC(=O)Oc1ccc2c(c1)c(OC(C)=O)c(C(OC(C)=O)OC(C)=O)c(=O)n2Cc1ccccc1 [Formula 1.2]	21.5	3	3	2.5	–
COc1c(C(OC(C)=O)OC(C)=O)c(=O)n(Cc2ccccc2)c2ccc(C)cc12 [Formula 1.3]	2.7	3	–	–	MLS (Maximum Lesion Scores) (HSV-2, strain MS): 1.8; NEUROLOGICAL DYSFUNCTIONS (percentage animals developing loss of bladder/hindlimb control) (HSV-2, strain MS): 0%
CCCCCCn1c(=O)c(C(OC(C)=O)OC(C)=O)c(OC)c2cc(C)ccc21 [Formula 1.4]	2.5	3	–	–	–
CC(=O)Oc1c(C(OC(C)=O)OC(C)=O)c(=O)n(C)c2ccccc12 [Formula 1.5]	25	4	25	3	MLS (Maximum Lesion Scores) (HSV-2, strain MS): 1.3; NEUROLOGICAL DYSFUNCTIONS (percentage animals developing loss of bladder/hindlimb control) (HSV-2, strain MS): 0%
CC(=O)Oc1c(C(OC(C)=O)OC(C)=O)c(=O)n(Cc2ccccc2)c2ccccc12 [Formula 1.6]	32	4	37	8	CC50 [2]: 28 µg/mL; IC50 (CMV (strain Towne); first value): 7 µg/mL; IC50 (CMV (strain Towne); second value marked * (repeat)): 8 µg/mL
CC(=O)Oc1c(C(OC(C)=O)OC(C)=O)c(=O)n(-c2ccccc2)c2ccccc12 [Formula 1.7]	20	4	18	4	–
CCCCC(=O)Oc1c(C(OC(=O)CCCC)OC(=O)CCCC)c(=O)n(C)c2ccccc12 [Formula 1.8]	30	5	> 10	4	–
CCCCCCn1c(=O)c(C(OC(C)=O)OC(C)=O)c(OC(C)=O)c2cc(C)ccc21 [Formula 1.9]	32	6	37	8	MLS (Maximum Lesion Scores) (HSV-2, strain MS): 2.5; NEUROLOGICAL DYSFUNCTIONS (percentage animals developing loss of bladder/hindlimb control) (HSV-2, strain MS): 75%
CC(=O)Oc1c(C(OC(C)=O)OC(C)=O)c(=O)n(Cc2ccccc2)c2ccc(C)cc12 [Formula 1.10]	18	7	–	–	–
CCCCCCCn1c(=O)c(C(OC(C)=O)OC(C)=O)c(OC(C)=O)c2ccccc21 [Formula 1.11]	25	8	43	10	–
CCC(=O)Oc1c(C(OC(=O)CC)OC(=O)CC)c(=O)n(C)c2ccccc12 [Formula 1.12]	29	8	29	7	–
COc1c(C(OC(C)=O)OC(C)=O)c(=O)n(C)c2ccccc12 [Formula 1.13]	18	8	–	–	–
COc1ccc(OCCCOCn2c(=O)c(C(OC(C)=O)OC(C)=O)c(OC(C)=O)c3ccccc32)c(Cl)c1 [Formula 1.14]	30	9	–	–	CC50 [2]: 50 µg/mL; MLS (Maximum Lesion Scores) (HSV-2, strain MS): 1.8; NEUROLOGICAL DYSFUNCTIONS (percentage animals developing loss of bladder/hindlimb control) (HSV-2, strain MS): 12%; IC50 (CMV (strain Towne); first value): 16 µg/mL; IC50 (CMV (strain Towne); second value marked * (repeat)): 18 µg/mL
CC(=O)Oc1c(C(OC(C)=O)OC(C)=O)c(=O)n(Cc2ccccc2)c2ccc(OCc3ccccc3)cc12 [Formula 1.15]	29	10	40	10	–
C=CCOC(=O)Cn1c(=O)c(C(OC(C)=O)OC(C)=O)c(OC(C)=O)c2ccccc21 [Formula 1.16]	43	10	–	–	–
CCCCCCn1c(=O)c(C(OC)OC)c(OC)c2cc(C)ccc21 [Formula 1.17]	30	5	–	–	–
CC(C)(CO)[C@@H](O)C(=O)NCCCO [dexpanthenol]	–	–	–	–	enhancement of antiviral activity of lidocaine or lidocaine hydrochloride [3]: significantly enhances the antiviral activity
CCN(CC)CC(=O)Nc1c(C)cccc1C [lidocaine, 2-(diethylamino)-N-(2,6-dimethylphenyl)acetamide]	–	–	–	–	treatment of herpes virus infections (herpes virus infections): is able to treat herpes virus infections of mammals; antiviral activity against HSV-2 (HSV-2): is an antiviral agent in cell culture against HSV-1 and HSV-2; treatment of HSV oral and genital lesions [4]: particularly effective in the treatment of HSV oral and genital lesions in humans; antiviral activity against HSV-1 (HSV-1): is an antiviral agent in cell culture against HSV-1 and HSV-2
CC(C)(CO)[C@@H](O)C(=O)NCCC(=O)O [pantothenic acid]	–	–	–	–	enhancement of antiviral activity of lidocaine or lidocaine hydrochloride [3]: significantly enhances the antiviral activity
